Measurements: patent US5474988A, “5-phenylpyrrolo-1,4-benzoxazine and 5-phenylpyrrolo-1,4-benzothiazine compounds, process and intermediates for their production and pharmaceutical compositions containing them” (Kali-Chemie Pharma GmbH, priority 1993, dated 1995)

Legend:
[1] = system: P.A.F.-induced aggregation of blood platelets; assay: anti-P.A.F. action in vitro (P.A.F.-induced platelet aggregation); type: cell-based; conditions: Oryctolagus cuniculus, 10^-5 mole/liter, read-out: Anti-P.A.F. activity in vitro, % inhibition of the P.A.F.-induced aggregation of blood platelets from rabbit blood
Excerpt: 3. Determination of the anti-P.A.F. action in vitro.
P.A.F. (=Platelet Activating Factor=Platelet Aggregation Factor) is a phospholipid mediator which has a multiplicity of actions. The activation of blood platelet aggregation results in the induction of long-lasting bronchoconstrictions and hyperreactivity of the respiratory passages.
In this test, the effect of the test substances on platelet aggregation induced by addition of P.A.F. in a platelet suspension obtained from rabbit blood was investigated according to the method described by Mikashima et al. (Jap. J. Pharmacol. 44 (1987) 387-391).
A suspension of platelets obtained from rabbit blood was used which contains 4×10^9 platelets/ml in a modified Tyrode buffer solution (=Tyrode solution with the addition of 1.3 mM/l of CaCl2 and 2.5 g/l of gelatine) adjusted to pH 7.4. Tyrode solution is an aqueous solution containing, per liter, 136.9 mmole of NaCl, 2.68 mmole of KCl, 2.31 mmole of CaCl2, 1.0 mmole of MgCl2, 11.9 mmole of NaHCO3, 1.45 mmole of NaH2 PO4 and 5.55 mmole of glucose. The platelets were concentrated from 10 ml blood samples of three rabbits (New Zealand hybrids, body weight 3-4 kg) in each case. To accomplish this, the blood samples were treated with ethylenediaminetetraacetic acid and washed according to the method of Artley et al. (Brit. J. Haematol. 19 (1970), 7-17). A platelet-rich plasma was first separated by centrifugation (20 minutes at 400×g). The platelets were separated from the plasma by repeated centrifugation for 15 minutes at 1400×g.After the centrifugation, the blood platelets remaining in the sediment were resuspended in a Tyrode buffer solution (but without calcium). 0.4 mmole of lysine acetylsalicylate was then added, and the blood platelets were sedimented again after 15 minutes. The sediment was resuspended in the aforementioned modified Tyrode buffer solution, and the number of platelets in the suspension obtained was adjusted to the desired content.
A 40×10^-9 molar P.A.F. solution was employed as a reagent. This solution was prepared from a 1.8×10^-3 molar stock solution in chloroform. To do this, a 10 μl sample of the stock solution was evaporated to dryness and dissolved again in 180 μl of the modified Tyrode buffer solution, to which 0.25% of lipid-free bovine serum albumin had been added. 10^-5 molar working solutions were then prepared from this and stored frozen. Samples of these solutions were appropriately diluted for tests.
In order to carry out the test, 50 μl of the blood platelet suspension and 10 μl of a 40×10^-5 molar solution of the compound to be investigated were added to […] of the modified Tyrode buffer solution with stirring (1000 rpm) in an aggregation tube provided with a small magnetic stirrer. This corresponded to a final test substance concentration of 10^-5 mole/l. After a preincubation time of 90 seconds, 10 μl of the P.A.F. preparation were added. For 4-5 minutes, the aggregation occurring in the aggregation tube was measured by means of a computerized aggregometer.
The aggregation occurring in the test tubes containing only the platelet suspension is rated as 0%. The aggregation occurring in the test tubes containing platelet suspension and P.A.F. preparation, in which a P.A.F.-induced increase in platelet aggregation takes place, is rated as 100%. The aggregation still occurring after addition of the test substances is measured, and from this the inhibition of the P.A.F.-inducedincrease in aggregation which takes place is calculated in %.

5-lipoxygenase = target: T1, 5-lipoxygenase (Cavia porcellus, UniProt A0A286X958); assay: inhibitory activity on free 5-lipoxygenase concentrated from peritoneal PMNs of the guinea-pig (5-HETE formation); type: biochemical; conditions: 10^-5 mole/liter; guinea-pig 5-LO, 37° C.; read-out: In vitro % inhibitory activity on 5-HETE formation caused by free 5-LO
T1 construct: The 5-LO was concentrated in a known manner from PMNs of male Dunkin-Hartley guinea-pigs; endogenous in cells; host or cells: peritoneal PMNs of male Dunkin-Hartley guinea-pigs, homogenized; 10,000 x g supernatant used as enzyme solution
T1 sequence (A0A286X958 1-674): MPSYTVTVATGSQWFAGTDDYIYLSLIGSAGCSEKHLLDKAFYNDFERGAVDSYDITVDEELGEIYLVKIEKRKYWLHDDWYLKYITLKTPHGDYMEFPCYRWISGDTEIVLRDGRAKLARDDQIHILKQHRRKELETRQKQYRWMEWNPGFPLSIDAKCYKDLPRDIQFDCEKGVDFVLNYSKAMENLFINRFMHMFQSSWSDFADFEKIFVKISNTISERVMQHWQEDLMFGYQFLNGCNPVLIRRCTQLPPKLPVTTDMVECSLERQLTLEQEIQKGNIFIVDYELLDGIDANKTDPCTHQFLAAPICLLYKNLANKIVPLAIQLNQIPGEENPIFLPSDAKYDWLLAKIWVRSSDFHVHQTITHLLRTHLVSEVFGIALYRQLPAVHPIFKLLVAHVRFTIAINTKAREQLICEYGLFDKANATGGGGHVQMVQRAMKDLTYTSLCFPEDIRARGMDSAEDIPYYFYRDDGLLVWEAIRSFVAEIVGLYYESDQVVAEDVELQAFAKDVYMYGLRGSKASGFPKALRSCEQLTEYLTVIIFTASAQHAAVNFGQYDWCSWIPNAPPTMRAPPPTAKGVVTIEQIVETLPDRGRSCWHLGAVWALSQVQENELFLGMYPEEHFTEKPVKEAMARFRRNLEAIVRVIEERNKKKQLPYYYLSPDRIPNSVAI
Excerpt: 4b. In vitro determination of inhibitory activity on 5-lipoxygenase concentrated from peritoneal PMNs of the guinea-pig.
An inhibition of 5-lipoxygenase can be caused by direct inhibitory action of the substances on the enzyme and/or by interference with the activation of the enzyme. While in test 4a the 5-lipoxygenase inhibition of the substances was investigated in rat PMN cells, in test 4b the inhibitory activity of the substances was investigated on free 5-LO concentrated from guinea-pig PMN cells according to the method of D. Aharony et al., J. Biol. Chem. 261 (1986), 11512-11519 (1986).
The 5-LO was concentrated in a known manner from PMNs of male Dunkin-Hartley guinea-pigs (body weight 400 to 500 g) as follows. 10 ml of a solution containing 27.9 g/l of sodium thioglycolate were injected i.p. into the animals in order to induce the PMN invasion as a result of this inflammatory stimulus. After 22 hours, the animals were sacrificed by lethal ether anaesthesia. 70 ml of HBSS without Ca^++ and Mg^++ ions and containing 0.2% by weight of sodium citrate were then injected into the abdominal cavity. The cell suspension (>80% of the cells are PMNs) was withdrawn from the abdominal cavity, filtered through a cheese-making filter cloth, and washed twice with a 50 mM potassium phosphate buffer solution of pH 7.4, which contained 0.5 mM ethylenediaminetetraacetic acid, 1% by weight of gelatine and 20 μM indomethacin. The cells were resuspended, and the PMN suspension containing 10^8 cells/ml was homogenized three times for 15 seconds each in an ice-bath in a homogenizer of the Labsonic™ type set at high speed. The resulting suspension was centrifuged at 4° C. (15 minutes at 10,000×g). The supernatant liquid was used for the investigation as a solution of the free 5-LO enzyme.
The experiments were carried out at 37° C. for 7 minutes using 0.625 ml samples of this enzyme solution. For the experiments, the enzyme solution (=equivalent of 2.5×10^7 cells), 0.5 mM glutathione, 1 mM ATP and 0.3 mM calcium chloride were added to test tubes. […] of the test substance were added to the samples dissolved in sufficient dimethylformamide such that the dimethylformamide concentration in each test tube is 0.5%. Only dimethylformamide was added to the control samples. After 2 minutes, the formation of 5-(S)-hydroxy-6,8,11,14-eicosatetraenoic acid (=[…]) was initiated by addition 10 μM arachidonic acid. After 5 minutes, the reaction was terminated by addition of 0.625 ml of a mixture of methyl acetate/methanol/0.2 m citric acid 15:2:0.5 v/v/v. 5-HETE was extracted twice using this solvent mixture. The 5-HETE-containing phases were combined and evaporated to dryness under a nitrogen atmosphere. The residue was taken up in a mixture of methanol/water/acetic acid 75:21:0.02 v/v/v having a pH of 5.7, and the solution was investigated for its content of 5-HETE by means of reverse phase HPLC. To accomplish this, a […] silanized silica gel column (Hichrom® ODS2, 250×4.6 mm) was employed as the adsorbent and a mixture of methanol/water/acetic acid 75:21:0.02 adjusted to pH 5.7 with ammonia and having a flow rate of 1 ml/min was used as the eluent. 5-HETE, which was eluted as a single peak after 20 minutes, was identified by comparison with standard solutions eluted at the same time and determined using a UV light detector at a wavelength of 235 nm. Quantitative determination was carried out by comparison of the peak area obtained with peak areas occurring in the calibrated standard solutions. From the 5-HETE contents of the samples determined, the inhibitory activity of the test substances was calculated in % inhibition of 5-HETE synthesis in comparison to the control samples containing no test substance.

| SMILES | inhibition at 10 µM [1] | inhibition at 10 µM (5-lipoxygenase) |
| --- | --- | --- |
| Cc1ccnc(N2CCN(C(=O)CC3Cn4c(-c5ccc(O)cc5)c(C)c5cccc(c54)O3)CC2)c1 (centres unmarked) [Example 17] | 99% | 100% |
| Cc1ccnc(N2CCN(C(=O)CCC3Cn4c(-c5cc(C)c(O)c(C)c5)c(C)c5c(F)ccc(c54)O3)CC2)c1 (centres unmarked) [Example 54] | 65% | 63% |
| Cc1ccnc(N2CCN(CCC3Cn4c(-c5ccc(O)cc5)c(C)c5c(F)ccc(c54)O3)CC2)c1 (centres unmarked) [Example 22] | 84% | 97% |
| Cc1ccnc(N2CCN(CCCCC3Cn4c(-c5cc(C)c(O)c(C)c5)c(C)c5cccc(c54)O3)CC2)c1 (centres unmarked) [Example 18] | 78% | 100% |
